Test systems include HCT-15 colon; RXF 393 renal; 786-0 renal; MCF7 breast; M14 melanoma; SNB-19 CNS.
Assay in all cases: growth of human tumour cells (NCI), 48 h

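Protocol summary: plate cells (96-well), add compound at 5 concentrations, incubate 48 h, interpolate endpoints linearly. TGI: total growth inhibition.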

For `COc1ccc([C@H]2C=C(c3cc(F)c(Cl)cc3Cl)NC(=S)N2)cc1`, the TGI is above 100 µM with HCT-15 colon; 79.9 µM in the assay on RXF 393 renal; above 100 µM in the assay on 786-0 renal; above 100 µM in the assay on MCF7 breast; above 100 µM in the assay with M14 melanoma; above 100 µM in the assay on SNB-19 CNS.
In the case of `CO[C@@H]1C=C[C@@]23c4cc5c(cc4C(O)N(CC2O)C3C1)OCO5` (some centres undefined), the TGI in the assay on HCT-15 colon amounted to 39.3 µM; in the assay on RXF 393 renal, 50.3 µM; with 786-0 renal, 22.6 µM; with MCF7 breast it was 8.64 µM; with M14 melanoma it was 12.6 µM; in the assay on SNB-19 CNS, 33.8 µM.
For `O=C(NCCNCCNCCNC(=O)c1cc(-c2ccccc2)nc2ccccc12)c1cc(-c2ccccc2)nc2ccccc12`, the TGI was 18.9 µM with HCT-15 colon; 4.34 µM in the assay with RXF 393 renal; 3.08 µM in the assay with 786-0 renal; 3.79 µM with MCF7 breast; 3.39 µM with M14 melanoma; 8.93 µM with SNB-19 CNS.
With `Cc1ccc(C(CC(=O)C(C)(C)CN2CCCCC2)SCCS(=O)(=O)O)cc1` (centres undefined), the TGI in the assay on HCT-15 colon was 72 µM; with RXF 393 renal it was 57.1 µM; in the assay with 786-0 renal it was 59.9 µM; with MCF7 breast it was 83.8 µM; in the assay with M14 melanoma it was 50.1 µM; with SNB-19 CNS, above 100 µM.
Consider `CN1C(=O)c2c(c3c4ccccc4n(C4OC(CO)C(O)C(O)C4O)c3c3[nH]c4ccccc4c23)C1=O` (centres undefined), for which the TGI with HCT-15 colon amounted to 17.4 µM; with RXF 393 renal it was 8.96 µM; in the assay on 786-0 renal, 7.31 µM; in the assay on MCF7 breast, 18.7 µM; with M14 melanoma it was 6.13 µM; with SNB-19 CNS, 8.42 µM.
Take `Nc1ccc2cc3[nH]c4cc(N)ccc4c3nc2c1`: the TGI came to 1.47 µM in the assay on HCT-15 colon; 1.98 µM with RXF 393 renal; 1.39 µM in the assay with 786-0 renal; 1.7 µM in the assay on MCF7 breast; 1.36 µM in the assay on M14 melanoma; 3.76 µM in the assay with SNB-19 CNS.
`CC1=C(C#N)C2C(=C(N)Oc3ccccc32)C(N)=N1` (centres undefined): the TGI with HCT-15 colon is 41.4 µM; with RXF 393 renal it was above 100 µM; in the assay on 786-0 renal, 60.9 µM; in the assay with MCF7 breast, 62.9 µM; with M14 melanoma, 64.6 µM; in the assay with SNB-19 CNS it was 56.3 µM.
For the molecule `COC(=O)[C@@H]1C2OC(C)(C)OC2CN1C(=O)OCc1ccccc1` (some centres undefined), the TGI in the assay on HCT-15 colon, in the assay on RXF 393 renal, with 786-0 renal, in the assay with MCF7 breast, in the assay with M14 melanoma and in the assay on SNB-19 CNS was above 100 µM each time.
With `CC(C)c1c(O[Si](C(C)C)(C(C)C)C(C)C)c2c3c(ccc4c3c1OC4(C)C)C(C)CC2` (centres undefined), the TGI with HCT-15 colon, with RXF 393 renal, with 786-0 renal, with MCF7 breast, with M14 melanoma and with SNB-19 CNS was above 100 µM in each case.
For the molecule `CCOC(=O)CCC(NC(=O)c1ccc(Nc2nc3ccccc3n3cccc23)cc1)C(=O)OCC` (centres undefined), the TGI in the assay with HCT-15 colon was above 100 µM; with RXF 393 renal it was 32.8 µM; in the assay with 786-0 renal it was 33.2 µM; in the assay on MCF7 breast, above 100 µM; in the assay on M14 melanoma, above 100 µM; in the assay with SNB-19 CNS it was above 100 µM.
Consider `CC(C)(C)CC(C)(C)N=C(N)NO`, for which the TGI in the assay with HCT-15 colon, with RXF 393 renal, in the assay on 786-0 renal, in the assay on MCF7 breast, in the assay on M14 melanoma and in the assay on SNB-19 CNS was above 100 µM throughout.
As to `Nc1ccc(Nc2c3ccccc3nc3ccccc23)cc1`, the TGI with HCT-15 colon, in the assay with RXF 393 renal, in the assay on 786-0 renal, in the assay on MCF7 breast, in the assay on M14 melanoma and with SNB-19 CNS was above 10 µM in each case.
On to `CC(C)(C)OC(=O)NC(Cc1ccc(OCc2ccccc2)cn1)C(=O)NCc1ccccc1` (centres undefined), for which the TGI with HCT-15 colon is 72.8 µM; with RXF 393 renal, above 100 µM; with 786-0 renal it was above 100 µM; with MCF7 breast it was 97.9 µM; in the assay with M14 melanoma, 47.8 µM; with SNB-19 CNS it was above 100 µM.
As to `C[C@]12CC[C@H](O)C=C1CC[C@@H]1[C@@H]2CC[C@]2(C)C(=N/O)/C(=C/c3ccncc3)C[C@@H]12`, the TGI in the assay with HCT-15 colon is above 100 µM; in the assay with RXF 393 renal it was 26.3 µM; in the assay with 786-0 renal, 25.5 µM; with MCF7 breast, 16.7 µM; in the assay on M14 melanoma, 24.6 µM; with SNB-19 CNS, 32 µM.
Take `COc1cc2c(cc1OC)C1CCc3ccccc3CN1CC2` (centres undefined): the TGI in the assay with HCT-15 colon, in the assay with RXF 393 renal, in the assay on 786-0 renal, with MCF7 breast, in the assay on M14 melanoma and in the assay on SNB-19 CNS was above 100 µM each time.
For the molecule `Cn1c(Sc2ccc(-c3cccnc3)n2C)ccc1-c1cccnc1`, the TGI in the assay with HCT-15 colon turned out to be 35.6 µM; in the assay with RXF 393 renal, 36.3 µM; in the assay with 786-0 renal, 43.5 µM; in the assay on MCF7 breast, 45.3 µM; in the assay on M14 melanoma, 37 µM; in the assay with SNB-19 CNS it was 42.3 µM.
`CCCN(CCC)c1cc2c(cc1F)c(=O)c(C(=O)O)cn2-c1ccc(N2CCN(C)CC2)cn1`: the TGI with HCT-15 colon is above 100 µM; in the assay on RXF 393 renal, 33.1 µM; with 786-0 renal it was 36.8 µM; in the assay with MCF7 breast, 53.3 µM; in the assay on M14 melanoma it was 32.1 µM; with SNB-19 CNS it was 31.5 µM.
Regarding `CC(=O)c1nc2ccccc2n1CC(=O)c1ccc(Cl)cc1`, the TGI is above 100 µM with HCT-15 colon; 98.5 µM in the assay with RXF 393 renal; 14.1 µM with 786-0 renal; above 100 µM with MCF7 breast; above 100 µM in the assay with M14 melanoma; above 100 µM in the assay on SNB-19 CNS.
In the case of `Cn1c(=O)c2c(nc(N)n2C2OC(CO)C(O)C2O)n(C)c1=O` (centres undefined), the TGI with HCT-15 colon, in the assay on RXF 393 renal, with 786-0 renal, in the assay with MCF7 breast, in the assay on M14 melanoma and in the assay with SNB-19 CNS was above 100 µM each time.
